Measured values published in paper PMC8472790, “Dual Emissive Ir(III) Complexes for Photodynamic Therapy and Bioimaging” (Pharmaceutics, 2021).
Like-named read-outs stand apart in the source and are kept apart here.

How the values were obtained:
A549 cells [1] = test: Cytotoxicity assay by flow cytometry, Annexin V-DY634 / 7-AAD double staining; format: cell-based, Human; settings: A549, dark and irradiation at 470 nm
Procedure: Necrotic and apoptotic cell death was determined by measuring cell membrane permeabilization and phosphatidylserine exposure on cell surface in A549 cells, respectively. 10^5 cells/well were seeded in flat-bottom, 12-well plates (1 mL/well) in complete medium and left 12 h to attach to the plates. […] After 19 h, cells were trypsinized and thereafter resuspended in 50 μL of a mixture of DY634-conjugated Annexin V, Annexin-binding buffer (ABB; 140 mM NaCl, 2.5 mM CaCl2, 10 mM HEPES/NaOH pH 7.4) and 7-amino-actinomycin D (7-AAD). After incubation for further 15 min at rt in dark, cells were diluted to 300 μL with ABB. A total of 10,000 cells were acquired on a FACSCalibur^TM flow cytometer (BD Biosciences, San Jose, CA, USA) and cell death analysis was performed using Flowjo 7.6.1 (Becton Dickinson (BD), Franklin Lakes, NJ, USA), CellQuest Pro (BD Biosciences) and GraphPad Prism 8 (GraphPad Software, San Diego, CA, USA) softwares.

A549 cells [2] = test: Cell cycle analysis, propidium iodide flow cytometry; format: cell-based, Human; settings: for Cell distribution G0-G1 / Cell distribution G2-M / Cell distribution S: 5 h + 19 h
Procedure: 4 × 105. […] Thereupon, cell culture was changed, and half of the experimental points were irradiated at 470 nm. After 19 h in culture, cells were trypsinized, washed twice with PBS, fixed with cold 70% ethanol (v/v) by vortexing and stored at −20 °C for at least 24 h. After that, cells were wash with cold PBS and stained with 500 μL of a solution of propidium iodide (PI) and RNase (Immunostep, Salamanca, Spain) for 20 min at rt in the dark. Finally, a total of 10,000 cells were acquired on a FACSCalibur^TM flow cytometer and data were analyzed using the aforementioned softwares.

[3] = Distribution coefficient n-octanol/water, shake-flask method; format: physicochemical; settings: pH = 7.4, n-octanol/phosphate buffered saline, 298 K
Procedure: The n-octanol-water coefficient of complexes 1–4 and L1 and L2 were determined using a shake-flask method. A mixture of buffered-saline distilled water (100 mL, phosphate buffer [PO4^3−] = 10 mM, [NaCl] = 0.15 M, pH 7.4) and n-octanol (100 mL) was shaken for 72 h to allow saturation of both phases. Approximately 0.5 mg of the complexes or ligands werw dissolved in 5 mL of the aqueous phase and 5 mL of the organic phase were added, mixing for 10 min. The resulting emulsion was centrifuged to separate the phases. The concentration of the compounds in each phase was determined using UV absorbance spectroscopy at 298 K. logP7.4 was defined as log{[compound(organic phase)]/[compound(aqueous phase)]}.

A549 cells [4] = test: ROS production measurement with dihydroethidium (DHE) by flow cytometry; format: cell-based, Human; settings: A549, IC50 to ¼ IC50, dark and irradiation at 470 nm for 10 min
Procedure: Cells were incubated with the complex for 5 h and subsequently half of the experimental points were irradiated at 470 nm after replacing culture medium. Upon 19 h, cells were trypsinized, resuspended in 100 μL of a mixture of PBS and 2 μM of the dihydroethidium (DHE) probe, incubated at 37 °C in the dark for 15 min and diluted to 300 μL with PBS. Lastly, a total of 10,000 events were acquired on a FACSCalibur^TM flow cytometer and data were analyzed using the aforementioned softwares

[5] = test system: A549 lung carcinoma cells; test: MTT-reduction cell viability assay, dark and after LED irradiation; format: cell-based, Human; settings: for PI (Phototoxic index), 405 nm: IC50 dark / IC50 at 405 nm; for PI (Phototoxic index), 470 nm: IC50 dark / IC50 at 470 nm
Procedure: Human lung carcinoma A549 cell line (from ATCC, Manassas, VA, USA) was cultured in high glucose Dubecco’s Modified Eagle’s Medium (DMEM) supplemented with 5% fetal bovine serum (FBS) as well as L-glutamine and penicillin/streptomycin at 37 °C in a humidified atmosphere of 95% air and 5% CO2.
Cell metabolic activity was analyzed by an MTT-reduction assay to assess the A549 cell sensitivity to the complexes. Thus, 10^5 cells(A549)/mL were seeded in flat-bottom 96-well plates (100 µL/well) in complete medium and allowed to attach for 24 h. A stock solution of the complexes was prepared in DMSO 0.1 M. Subsequent dilutions of the different stock solutions from the complexes using DMEM were prepared. 100 µL/well were added to the cells, in concentrations ranging from 0.2 to 50 µM. each concentration was performed by quadruplicate. After 5 h of incubation with the complexes, duplicates of each concentration were irradiated with an LED lamp upon 405 and 470 nm with a light dose of 6.5 and 15.1 J/m^2, respectively, for 10 min. Before irradiation, culture medium was replaced with fresh medium in order to avoid interference with non-internalized complexes. Cells were cultured for a further 19 h. 10 µL of MTT (5 mg ml^−^1 in PBS) were added to each well and then further 2 h incubation was allowed at 37 °C. Finally, after removing the culture medium, DMSO (100 µL/well) was added to dissolve the formazan crystals. Multiskan EX 96-well multiscanner autoreader (Thermo Fisher Scientific, Waltham, MA, USA) was used to determine the optical density at 550 nm and IC50 was calculated. Each experiment was repeated at least three independent analyses.

A549 cells [6] = test: Cell morphology by phase contrast (inverted) microscopy; format: cell-based, Human; settings: A549, 10 to 20 µM, 20 h
Procedure: Alterations in cell morphology and behavior as a consequence of the exposition to ligands and complexes were analyzed using an inverted microscope (Figure 5). […] Oppositely, complexes 1–4 were able to modify cell aspect. All of them triggered cytoplasmic vesicle formation, which was more remarkable for compounds 3 and 4, containing the bzq orthometallated ligand. Moreover, even though cell division still took place in the presence of all of them, it became patently clear that they have cytotoxic properties, being more evident for complexes 1 and 2.
Figure 5 Phase contrast microscopy images of A549 cells treated with L1, L2 and 1–4 at concentrations between 10 and 20 µM for 20 h. Black arrows point to apoptotic cells. Little black triangles show examples of cells containing cytoplasmic vesicles.

[7] = A549, irradiation at 470 nm, 0.0975 μM (25% IC50)
[8] = 5 h incubation, irradiation 10 min at 405 nm (6.5 J/m^2), further 19 h, read-out: IC50(λexc 405 nm)
[9] = 5 h incubation, irradiation 10 min at 470 nm (15.1 J/m^2), further 19 h, read-out: IC50(λexc 470 nm)
[10] = 24 h incubation, no irradiation, read-out: IC50 (DARK)
[11] = Homo sapiens, light or radiation study, 24 h incubation, no irradiation, read-out: IC50 (DARK)

Row | Compound | logP(Oct/W) [3] | IC50 [5, 8] | IC50 [5, 9] | IC50 [5, 10] | logP [3] | IC50 [5, 11] | Alterations in cell morphology (A549 cells [6]) | PI (Phototoxic index), 405 nm [5] | PI (Phototoxic index), 470 nm [5] | other results
1 | [Ir(bzq)2(dpa-acr)]^+ [Complex 4] | 1.24 | > 5000 nM | 390 ± 90 nM | 43380 ± 140 nM |  |  |  |  |  | Cell death pathway (A549 cells [1]): triggers the apoptotic pathway; Cell distribution G0-G1 (A549 cells [2]; A549, dark, 10.9 μM (25% IC50)): 72.4%; Cell distribution G2-M (A549 cells [2]; A549, dark, 10.9 μM (25% IC50)): 13.5%; Cell distribution S (A549 cells [2]; A549, dark, 10.9 μM (25% IC50)): 14.1%; Cell distribution G0-G1 (A549 cells [2]; [7]): 73.7%; Cell distribution G2-M (A549 cells [2]; [7]): 14.0%; Cell distribution S (A549 cells [2]; [7]): 12.3%; Cell cycle arrest (A549 cells [2]; A549, ¼ IC50, dark and irradiation at 470 nm): not capable of stopping the cell cycle at any of its phases; ROS generation (DHE) (A549 cells [4]): concentration-dependent ROS generation
2 | c1ccc(N(c2ccccn2)c2c3ccccc3cc3ccccc23)nc1 [Complex L1] |  |  |  |  | 1.2 | > 50000 nM | apoptotic or necrotic cells were not detected |  |  | 
3 | [Cl-].c1ccc(-c2cccc[c]2[Ir+][c]2ccccc2-c2ccccn2)nc1.c1ccc(N(c2ccccn2)c2c3ccccc3cc3ccccc23)nc1 [Complex 1] | 0.75 | 1160 ± 60 nM | 180 ± 50 nM | 13600 ± 80 nM |  |  |  | 11.7 | 75.5 | 
4 | [Cl-].c1ccc(N(c2ccccn2)c2c3ccccc3cc3ccccc23)nc1.c1cnc2c(c1)ccc1ccc[c]([Ir+][c]3cccc4ccc5cccnc5c34)c12 [Complex 3] | 1.73 | 1350 ± 80 nM | 400 ± 80 nM | 18900 ± 120 nM |  |  |  | 14.0 | 47.2 | 
5 | c1ccc(N(c2ccccn2)c2c3ccccc3nc3ccccc23)nc1 [Complex L2] |  |  |  |  | 0.59 | > 50000 nM | apoptotic or necrotic cells were not detected |  |  | 
